From patent US6019988A, “Methods and compositions for enhancing skin permeation of drugs using permeation enhancers, when drugs and/or permeation enhancers are unstable in combination during long-term storage” (priority 1996, dated 2000)

Columns and labels:
[1] = not told
[2] = Stability in pharmaceutical solvents / excipients at 30 and 40 °C
[3] = Solubility in water- or oil-based formulations; format: physicochemical
[4] = Plasma concentration after topical application to hairless rats; format: in vivo, hairless rat

CC(=C/C(=O)O)/C(=C/c1ccc2cc3c(cc2c1)C(C)(C)CCC3(C)C)c1cccc(C(=O)O)c1 [BMS-188184, (2Z,4Z)-3-methyl-4-(3-carboxyphenyl)-5-[(1,2,3,4-tetrahydro-1,1,4,4-tetramethyl)-6-anthracenyl]-2,4-pentadienoic acid]
long-term (storage) stability in formulations / with permeation enhancers [1]: stable in GEAHLENE base containing mineral oil and in petrolatum ointment containing fatty acid esters | shelf life in these solvents ([2]; 30° C., propylene glycol, Transcutol, ethanol SD-40, PEG-8, water): less than 10 days | stability in various pharmaceutical solvents ([2]; propylene glycol, Transcutol, ethanol SD-40, PEG-8, water, 30° C. and 40° C.): poor

CC(=C/C(=O)O)/C(=C/c1ccc2cc3c(cc2c1)C(C)(C)CCC3(C)C)c1cccc(C(=O)O)c1 [BMS-188184-01, (2Z,4Z)-3-methyl-4-(3-carboxyphenyl)-5-[(1,2,3,4-tetrahydro-1,1,4,4-tetramethyl)-6-anthracenyl]-2,4-pentadienoic acid]
solubility in water-based or oil-based formulations [3]: virtually insoluble

CC(=C/C(=O)O)/C(=C/c1ccc2cc3c(cc2c1)C(C)(C)CCC3(C)C)c1cccc(C(=O)O)c1 [BMS-188184-02, (2Z,4Z)-3-methyl-4-(3-carboxyphenyl)-5-[(1,2,3,4-tetrahydro-1,1,4,4-tetramethyl)-6-anthracenyl]-2,4-pentadienoic acid]
concentration of drug in plasma ([4]; by 6 hours after topical application): below the limit of detection | Cmax ([4]; rat, plasma, topical or ocular, dual system 2% ointment + SLS cream, single topical dose, read-out: peak plasma concentrations): 2400 ng/mL | Tmax ([4]; rat, plasma, topical or ocular, dual system 2% ointment + SLS cream, single topical dose, read-out: time of peak plasma concentrations): 2 h | solubility in water-based or oil-based formulations [3]: soluble

CC(=C/C(=O)O)/C(=C/c1ccc2cc3c(cc2c1)C(C)(C)CCC3(C)C)c1cccc(C(=O)O)c1 [BMS-188184-05]
remaining at 240 h ([2]; pharmaceutical solvents): < 90%
